# Assay results as given in patent US8741884B2, “Compounds for the treatment of hepatitis C” (priority 2010, dated 2014).
# Read-outs that look alike come from different tables or passages of the source.
# Test system: HCV pseudoparticles (genotype 1a HCV E1 and E2 envelope, H77C isolate)
# Experiment: microbe, parasite or virus in culture
# Format: cell-based
# [1] = Hepatitis C virus, Huh-7, 48 h, class symbol, HCV pseudoparticles genotype 1a (H77C), Huh7 cells, luciferase 2 days after infection, average of duplicates
# [2] = Hepatitis C virus, Huh-7, 48 h, numeric value, HCV pseudoparticles genotype 1a (H77C), Huh7 cells, luciferase 2 days after infection, average of duplicates
SMILES,EC50 [1],EC50 (read-out: EC50),EC50 [2]
O=C(O)CNC(=O)c1ccc2cc1OCCCCCCCCOc1ccc(cc1)CNc1nc(nc(OCC(F)(F)F)n1)N2 [Example 1131],0.1 to 1 µM,,
COC(=O)c1ccc2cc1OCCCCCCOc1ccc(cc1)CNc1nc(nc(OCC(F)(F)F)n1)N2 [Example 1301],0.1 to 1 µM,,
CNC(=O)NC[C@H](NC(=O)c1ccc2cc1OCCCCCCOc1ccc(cc1)CNc1nc(nc(OCC(F)(F)F)n1)N2)C(=O)OC [Example 1706],0.0001 to 0.1 µM,,
COC(=O)CNC(=O)c1ccc2cc1OCCCCCCCCOc1ccc(cc1)CNc1nc(nc(OCC(F)(F)F)n1)N2 [Example 1104],0.1 to 1 µM,,
O=C(O)c1ccc2cc1OCCCCOC[C@H](c1ccccc1)Nc1nc(nc(OCC(F)(F)F)n1)N2 [Example 1004],,1 to 50 µM,
COC(=O)N1CCCCOc2cc(ccc2C(=O)NCC2(CN3CCCC3)CC2)Nc2nc(nc(OCC(F)(F)F)n2)NCc2ccc(cc2)OCCC1 [Example 3019],0.0001 to 0.1 µM,,0.0102 µM
CC(C)(C)OC(=O)N1CCCC1CNC(=O)c1ccc2cc1OCCCCCCOc1ccc(cc1)CNc1nc(nc(OCC(F)(F)F)n1)N2 (centres unmarked) [Example 1306],0.0001 to 0.1 µM,,
COC(=O)C(NC(=O)c1ccc2cc1OCCCCCCOc1ccc(cc1)CNc1nc(nc(OCC(F)(F)F)n1)N2)C1CCN(C(=O)OC(C)(C)C)C1 (centres unmarked) [Example 1310],0.0001 to 0.1 µM,,
COC(=O)C(NC(=O)c1ccc2cc1OCCCCCCCCOc1ccc(cc1)CNc1nc(nc(OCC(F)(F)F)n1)N2)C1CCCN(C(=O)OC(C)(C)C)C1 (centres unmarked) [Example 1106],0.0001 to 0.1 µM,,
CC[C@@H](C)[C@H](NC(=O)c1ccc2cc1OCCCCCCOc1ccc(cc1)CNc1nc(nc(OCC(F)(F)F)n1)N2)C(=O)O [Example 1404],0.0001 to 0.1 µM,,
CCOC(=O)[C@@H]1CN(C(=O)OC(C)(C)C)C[C@H]1NC(=O)c1ccc2cc1OCCCCCCOc1ccc(cc1)CNc1nc(nc(OCC(F)(F)F)n1)N2 [Example 1308],0.0001 to 0.1 µM,,
CC(C)(C)OC(=O)N[C@@H](CCNC(=O)c1ccc2cc1OCCCCCCOc1ccc(cc1)CNc1nc(nc(OCC(F)(F)F)n1)N2)C(=O)O [Example 1411],0.0001 to 0.1 µM,,
CC(C)(C)OC(=O)NC[C@H](NC(=O)c1ccc2cc1OCCCCCCOc1ccc(cc1)CNc1nc(nc(OCC(F)(F)F)n1)N2)C(=O)O [Example 1560],0.0001 to 0.1 µM,,
CCOC(=O)N1CCCCOc2cc(ccc2C(=O)NCC2(CN3CCCC3)CC2)Nc2nc(nc(OCC(F)(F)F)n2)NCc2ccc(cc2)OCCC1 [Example 3020],0.0001 to 0.1 µM,,
CC(C)(C)OC(=O)N1CCCC(C(NC(=O)c2ccc3cc2OCCCCCCOc2ccc(cc2)CNc2nc(nc(OCC(F)(F)F)n2)N3)C(=O)O)C1 (centres unmarked) [Example 1551],0.0001 to 0.1 µM,,
CN(C)CC(C)(C)CNC(=O)c1ccc2cc1OCCCCCCCCOc1ccc(cc1)CNc1nc(nc(OCC(F)(F)F)n1)N2 [Example 1010],0.0001 to 0.1 µM,,0.00514 µM
CC(C)(C)OC(=O)N1CCCC(NC(=O)c2ccc3cc2OCCCCCCCCOc2ccc(cc2)CNc2nc(nc(OCC(F)(F)F)n2)N3)C1 (centres unmarked) [Example 1012],0.0001 to 0.1 µM,,
CC(C)(C)OC(=O)N[C@@H](CCNC(=O)c1ccc2cc1OCCCCCCOc1ccc(cc1)CNc1nc(nc(OCC(F)(F)F)n1)N2)C(=O)OC(C)(C)C [Example 1325],0.0001 to 0.1 µM,,
COC(=O)[C@@H](CNC(=O)OC(C)(C)C)NC(=O)c1ccc2cc1OCCCCCCOc1ccc(cc1)CNc1nc(nc(OCC(F)(F)F)n1)N2 [Example 1309],0.1 to 1 µM,,
CN(C)CC(C)(C)CNC(=O)c1ccc2cc1OCCCCOc1cccc(c1)CNc1nc(nc(OCC(F)(F)F)n1)N2 [Example 1802],0.0001 to 0.1 µM,,
CC(C)(C)OC(=O)NCC[C@H](NC(=O)c1ccc2cc1OCCCCCCOc1ccc(cc1)CNc1nc(nc(OCC(F)(F)F)n1)N2)C(=O)O [Example 1561],0.0001 to 0.1 µM,,
CC(C)OC(=O)N1CCCCOc2cc(ccc2C(=O)NCC2(CN3CCCC3)CC2)Nc2nc(nc(OCC(F)(F)F)n2)NCc2ccc(cc2)OCCC1 [Example 3021],0.0001 to 0.1 µM,,

SMILES,EC50 [1],EC50 (read-out: EC50),EC50 [2]
COC(=O)[C@H](CNC(=O)c1ccccc1)NC(=O)c1ccc2cc1OCCCCCCOc1ccc(cc1)CNc1nc(nc(OCC(F)(F)F)n1)N2 [Example 1323],0.0001 to 0.1 µM,,
O=C(NCC1(CN2CCCC2)CC1)c1ccc2cc1OCC=CCOc1ccc(cc1)CNc1nc(nc(OCC(F)(F)F)n1)N2 [Example 2006],0.0001 to 0.1 µM,,
O=C(NCC1(CN2CCCC2)CC1)c1ccc2cc1OCCCNCCCCCCCCNc1nc(nc(OCC(F)(F)F)n1)N2 [Example 5002],0.0001 to 0.1 µM,,
CC(C)(C)OC(=O)N1CCC(NC(=O)c2ccc3cc2OCCCCCCOc2ccc(cc2)CNc2nc(nc(OCC(F)(F)F)n2)N3)(C(=O)O)CC1 [Example 1410],0.1 to 1 µM,,
CN(C)CC(C)(C)CNC(=O)c1ccc2cc1OCCCCCCOc1ccccc1CNc1nc(nc(OCC(F)(F)F)n1)N2 [Example 1806],0.1 to 1 µM,,
N=C(N)NCCCCNC(=O)c1ccc2cc1OCCCCCCOc1ccc(cc1)CNc1nc(nc(OCC(F)(F)F)n1)N2 [Example 1314],0.0001 to 0.1 µM,,
NC(=O)C(Cc1ccccc1)NC(=O)c1ccc2cc1OCCCCCCOc1ccc(cc1)CNc1nc(nc(OCC(F)(F)F)n1)N2 (centres unmarked) [Example 1319],0.0001 to 0.1 µM,,
CC(C)(C)OC(=O)N1CCCCOc2cc(ccc2C(=O)NCC2(CN3CCCC3)CC2)Nc2nc(nc(OCC(F)(F)F)n2)NCc2ccc(cc2)OCCC1 [Example 3016],0.0001 to 0.1 µM,,
CCOC(=O)N1CCCOc2ccc(cc2)CNc2nc(nc(OCC(F)(F)F)n2)Nc2ccc(C(=O)NCC3(CN4CCCC4)CC3)c(c2)OCCC1 [Example 3005],0.0001 to 0.1 µM,,
CN(C)CC(C)(C)CNC(=O)c1ccc2cc1OCCCCCCOCC(c1ccccc1)Nc1nc(nc(OCC(F)(F)F)n1)N2 (centres unmarked) [Example 1807],1 to 50 µM,,
C=C1COc2ccc(cc2)CNc2nc(nc(OCC(F)(F)F)n2)Nc2ccc(C(=O)NCC3(CN4CCCC4)CC3)c(c2)OC1 [Example 1006],1 to 50 µM,,
O=C(NC(Cc1ccccc1)C(=O)O)c1ccc2cc1OCCCCCCOc1ccc(cc1)CNc1nc(nc(OCC(F)(F)F)n1)N2 (centres unmarked) [Example 1405],0.0001 to 0.1 µM,,
COC(=O)CCNC(=O)c1ccc2cc1OCCCCCCOc1ccc(cc1)CNc1nc(nc(OCC(F)(F)F)n1)N2 [Example 1303],0.1 to 1 µM,,
O=C(NC(C(=O)O)C1CCCNC1)c1ccc2cc1OCCOCCOCCOc1ccc(cc1)CNc1nc(nc(OCC(F)(F)F)n1)N2 (centres unmarked) [Example 1606],0.0001 to 0.1 µM,,
CN(C)CC(C)(C)CNC(=O)c1ccc2cc1OCCCCCCCOc1ccc(cc1)CNc1nc(nc(OCC(F)(F)F)n1)N2 [Example 1201],0.0001 to 0.1 µM,,
CC(C)(C)OC(=O)N1CCC(CNC(=O)c2ccc3cc2OCCCCCCCCOc2ccc(cc2)CNc2nc(nc(OCC(F)(F)F)n2)N3)C1 (centres unmarked) [Example 1105],0.0001 to 0.1 µM,,0.0491 µM
N=C(N)CNC(=O)c1ccc2cc1OCCCCCCCCOc1ccc(cc1)CNc1nc(nc(OCC(F)(F)F)n1)N2 [Example 1107],0.0001 to 0.1 µM,,
COC(=O)CCNC(=O)c1ccc2cc1OCCCCCCCCOc1ccc(cc1)CNc1nc(nc(OCC(F)(F)F)n1)N2 [Example 1017],0.1 to 1 µM,,
CCNC(=O)N1CCCOc2ccc(cc2)CNc2nc(nc(OCC(F)(F)F)n2)Nc2ccc(C(=O)NCC3(CN4CCCC4)CC3)c(c2)OCCC1 [Example 3008],0.0001 to 0.1 µM,,0.00536 µM
CC(C)(C)OC(=O)NC[C@H](NC(=O)c1ccc2cc1OCCCCCCOc1ccc(cc1)CNc1nc(nc(OCC(F)(F)F)n1)N2)C(N)=O [Example 1700],0.0001 to 0.1 µM,,
C=C1COc2ccc(cc2)CNc2nc(nc(OCC(F)(F)F)n2)Nc2ccc(C(=O)O)c(c2)OC1 [Example 1005],1 to 50 µM,,
